Results on two compounds are retold here after patent US20240208998A1, “COMPOUNDS FOR USE IN THE TREATMENT OF HYPERPROLIFERATIVE DISORDERS” (FUNDACIÓ PRIVADA INSTITUT D'INVESTIGACIÓ ONCOLÓGICA DE VALL …, priority 2021, published 2024).

Type in all cases: cell-based
Experiment [1] concerns A375 (melanoma). Nature of the experiment: Antiproliferative activity on other tumour cell lines (CellTiter-Glo): A375. The note with it: Homo sapiens, A-375; A375, 72 h of treatment. The method, then: (§1) Other human adherent cancer cell lines were cultured in their corresponding cell medium (as specified in Table 4) supplemented with 10% FBS (v/v) and 1% P/S (v/v). Twenty-four hours prior to treatment with the compounds to be tested (Examples 1, 12 and 21), the cells were seeded in 96-well plates at different densities depending of the cell line (as specified in Table 4).
(§2) Depending on the cell line, a 50, 125 or 250 μM solution of the compounds of examples 1, 12 and 21 were prepared in complete medium, and then serially diluted (1:2) (Table 5). A solution of complete medium with DMSO was used as a vehicle control.
(§3) Fifty microliters of each serially diluted compound solution was added by medium replacement in two wells (by duplicate). After 48 h of treatment, 50 μL of fresh 2X serially diluted compound solution was added to the corresponding wells of the plate (100 μL of final volume/well). After twenty-four additional hours (a total of 72 h of treatment), an equal volume (100 μL) of CellTiter-Glo Reagent (Promega) was added to each well, plates were shaken during 2 min and incubated at rt for 10 min. Luminescence was recorded using a Spark multimode microplate reader and an integration time of 1 s per well.

Experiment [2] concerns LN229 (glioblastoma). Nature of the experiment: Antiproliferative activity on other tumour cell lines (CellTiter-Glo): LN229. The note with it: Homo sapiens, LN-229; LN229, 72 h of treatment. The method, then:
as §1, §2, §3
(ATP-based viability assays read luminescence as a measure of living cells.)

Experiment [3] deals with MDA-MB-468 (breast). In words: Antiproliferative activity on other tumour cell lines (CellTiter-Glo): MDA-MB-468. The note with it: Homo sapiens, MD-MB-468, 72 h of treatment. The method, then:
as §1, §2, §3

Experiment [4] concerns MCF7 (breast). In words: Antiproliferative activity on other tumour cell lines (CellTiter-Glo): MCF7. The note with it: Homo sapiens; MCF7, 72 h of treatment. The method, then: as §1, §2, §3
Experiment [5] concerns Hop62 (lung). Nature of the experiment: Antiproliferative activity on other tumour cell lines (CellTiter-Glo): Hop62. To be noted: Homo sapiens, HOP-62; Hop62, 72 h of treatment. The method, then:
as §1, §2, §3

SMILES strings stand for the structures.

Take `Cc1[nH]c2ccccc2c1-c1csc(NC(=O)Cc2c[nH]c3ccc(F)cc23)n1` [Example 12, 2-(5-fluoro-1H-indol-3-yl)-N-[4-(2-methyl-1H-indol-3-yl)thiazol-2-yl]acetamide]: the EC50 stood at 2.7 µM in experiment [1]; 5.9 µM in experiment [2]; 10.1 µM in experiment [3]; 10.3 µM in experiment [4]; 12.1 µM in experiment [5].

`Cc1[nH]c2ccccc2c1-c1csc(NC(=O)Cc2c[nH]c3ccc(O)cc23)n1` [Example 21, 2-(5-hydroxy-1H-indol-3-yl)-N-[4-(2-methyl-1H-indol-3-yl)thiazol-2-yl]acetamide]: the EC50 in experiment [1] is 1.1 µM; in experiment [2] it was 3.3 µM; in experiment [3], 9.2 µM; in experiment [4] it was 12.9 µM; in experiment [5], 81.6 µM.

The EC50 is the midpoint of the concentration-response curve. A high value points to a need for much substance.
